Source: PubChem BioAssay (NCI)
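The compound was tested at five concentrations on cells cultured in 96-well plates, with a 48-hour exposure period. TGI: total growth inhibition.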

Tests used:
Assay in all cases: NCI tumour cell line growth inhibition, 48 h
[1] = system: SN12C renal
[2] = system: SW-620 colon
[3] = system: NCI-H226 lung
[4] = system: OVCAR-8 ovarian
[5] = system: KM12 colon
[6] = system: DMS 114 small cell lung
[7] = system: KM20L2 colon
[8] = system: XF 498 CNS
[9] = system: OVCAR-4 ovarian
[10] = system: SNB-78 CNS
[11] = system: LOX IMVI melanoma
[12] = system: HCT-15 colon
[13] = system: HOP-92 NSCLC

For `CC(=O)O[C@]12CCCCCC1C1(O)C(O)CCC[C@H]12` (stereo partly drawn), the TGI [1] was over 100 µM, the TGI [2] was over 100 µM and the TGI [3] was over 100 µM. It also gave a TGI [4] of over 100 µM, a TGI [5] of over 100 µM and a TGI [6] of over 100 µM. For the same molecule, the TGI [7] was over 100 µM, the TGI [8] was over 100 µM and the TGI [9] was over 100 µM. The TGI [10] was over 100 µM, the TGI [11] was over 100 µM and the TGI [12] was over 100 µM.

Work on `CCN(C(=S)N[C@@H](Cc1ccccc1)C(=O)N[C@@H](CC(C)C)C(=O)OC)c1ccccc1` yielded a TGI [1] of over 100 µM, a TGI [2] of over 100 µM and a TGI [3] of over 100 µM. It also gave a TGI [4] of over 100 µM, a TGI [5] of over 100 µM and a TGI [13] of over 100 µM. For the same molecule, the TGI [9] was over 100 µM, the TGI [11] was over 100 µM and the TGI [12] was over 100 µM.

Work on `CN(C)CCCN1C(=S)N(CCCN(C)C)c2c3cc(O)ccc3nc3c([N+](=O)[O-])ccc1c23` yielded a TGI [1] of 36.1 µM, a TGI [2] of over 42 µM and a TGI [3] of 13.7 µM. For the same molecule, the TGI [4] was 15 µM, the TGI [5] was 9.51 µM and the TGI [13] was 16.1 µM. The TGI [9] was 10.9 µM, the TGI [11] was 5.9 µM and the TGI [12] was 12.6 µM.

`O=P(c1ccccc1)(c1ccccc1)N1O[C@@H](c2ccccc2)C=C[C@H]1c1ccccc1` showed a TGI [1] of 17.5 µM, a TGI [2] of 31.8 µM and a TGI [3] of 29.4 µM. For the same molecule, the TGI [4] was 32.7 µM, the TGI [5] was 44.4 µM and the TGI [13] was 25.6 µM. For the same molecule, the TGI [9] was 10.6 µM, the TGI [11] was 24.1 µM and the TGI [12] was 26.3 µM.

For `COCOc1ccc(Cn2c(=O)n(C)c(=O)c3c2ncn3C)cc1[N+](=O)[O-]`, the TGI [1] was over 100 µM, the TGI [2] was over 100 µM and the TGI [3] was over 100 µM. The TGI [4] was over 100 µM, the TGI [5] was over 100 µM and the TGI [6] was over 100 µM. The TGI [7] was over 100 µM, the TGI [10] was over 100 µM and the TGI [11] was over 100 µM. The TGI [12] was over 100 µM.

`Nc1c(-c2cccc3ccccc23)c2ccc([N+](=O)[O-])cc2c(=O)n1-c1nc2ccccc2s1` was tested, and the TGI [1] was over 100 µM, the TGI [2] was over 100 µM and the TGI [3] was 16.3 µM. The TGI [4] was 10.5 µM, the TGI [5] was 24.4 µM and the TGI [13] was over 55.5 µM. It also gave a TGI [9] of over 53.5 µM, a TGI [11] of over 35.5 µM and a TGI [12] of over 48 µM.

Molecule `C(=N\NC1=NCCCN1)/c1ccc2ccccc2c1` has a TGI [1] of 26.6 µM, a TGI [2] of 28.4 µM and a TGI [3] of 27.1 µM. For the same molecule, the TGI [4] was 29.3 µM, the TGI [5] was 28 µM and the TGI [13] was 25.1 µM. For the same molecule, the TGI [9] was 39.3 µM, the TGI [11] was 21 µM and the TGI [12] was 29.1 µM.

Molecule `O=C(NC(Cc1ccc(I)cc1)C(=O)O)c1ccc(I)cc1` (stereo not drawn) has a TGI [1] of over 100 µM, a TGI [2] of over 37.3 µM and a TGI [3] of over 100 µM. It also gave a TGI [4] of over 100 µM, a TGI [5] of over 100 µM and a TGI [6] of over 100 µM. The TGI [13] was over 100 µM, the TGI [7] was over 100 µM and the TGI [8] was over 100 µM. For the same molecule, the TGI [9] was over 100 µM, the TGI [10] was over 100 µM and the TGI [11] was over 100 µM. It also gave a TGI [12] of over 100 µM.

In the case of `CC(C)/C(Cl)=N\OC(=O)Nc1ccc(C#N)cc1`, the TGI [1] is reported as 26.6 µM, the TGI [2] is reported as 3.36 µM and the TGI [3] is reported as 27.2 µM. It also gave a TGI [4] of 31 µM, a TGI [5] of 29.9 µM and a TGI [13] of 2.98 µM. The TGI [9] was 3.24 µM, the TGI [11] was 13.2 µM and the TGI [12] was 22.6 µM.

In the case of `Cc1c(S(=O)(=O)/N=C(\N)Nc2ccc(Cl)cc2)sc2ccc(Cl)cc12`, the TGI [1] is reported as 31.2 µM, the TGI [2] is reported as 58.1 µM and the TGI [3] is reported as 44 µM. The TGI [4] was 38.9 µM, the TGI [5] was over 100 µM and the TGI [13] was 42.2 µM. For the same molecule, the TGI [9] was 68.8 µM, the TGI [11] was 36.3 µM and the TGI [12] was 44.6 µM.
